Data set [1] deals with Gram-negative bacteria and Gram-positive bacteria. Put plainly: Antibacterial activity, MIC over the four strains (GM). Format: cell-based. The note with it: mean of the MIC values of the four strains. Here is the method: To confirm the antibacterial activity, a minimal inhibitory concentration (MIC) value, which is a minimum concentration at which fungus bodies are not divided, was measured. Specifically, the strains disclosed in the following table 1 were purchased, incubated in each medium up to a mid-log phase, diluted to a fungus body concentration of 2×10^5 cells/100 μl, and inoculated into a micro titrate plate (Nunc, USA). […] A control group was treated with melittine by the same method as above, so as to determine an MIC value for each strain.

Another data set concerns trypsin. In words: Stability against protease (radial diffusion assay after trypsin treatment). It is filed as in vitro ADME. Particulars: 24 hours after trypsin culture; FIG. 2. On the procedure: To confirm the stability against the protease, trypsin degradation was identified by using a radial diffusion assay method after treatment with each of the triazine compounds of the following example. Specifically, the cultured strains (Escherichia coli) were incubated in 10 mL of LB medium at 37° C. for 18 hours, after which 10 μl of the culture fluid was inoculated into 10 mL of fresh BL medium and then further incubated for three hours, so as to obtain bacteria in a mid-logarithmic phase. For the radial diffusion assay method, a bacterial suspension (2×10^6 CFU/mL in LB) was mixed with 0.7% agarose and rapidly dispersed, after which the resulting mixed solution was poured into a 10 cm-long Petri dish. Each 5 μl of the triazine compound solution (10 mg/mL) of the following example was added to 25 μl of trypsin solution (0.2 μg/mL in PBS), and incubated at 37° C. for six hours. A reaction was terminated by freezing with liquid nitrogen, after which each 10 μl was taken, seeded on circular paper having a diameter of 6 mm placed on the Petri dish containing the agarose, and incubated overnight at 37° C. To quantify the inhibitory activity, the clearance zones of bacteria around the circular paper were measured to confirm the antibacterial activity. As a control group, melittine was used.

As to `CC[C@H](C)[C@H](NC(=O)CN)C(=O)NCC(=O)N[C@@H](C)C(=O)N[C@H](C(=O)N[C@@H](CC(C)C)C(=O)N[C@@H](CCCCN)C(=O)N[C@H](C(=O)N[C@@H](CC(C)C)C(=O)N[C@H](C(=O)N[C@H](C(=O)NCC(=O)N[C@@H](CC(C)C)C(=O)N1CCC[C@H]1C(=O)N[C@@H](C)C(=O)N[C@@H](CC(C)C)C(=O)N[C@H](C(=O)N[C@@H](CO)C(=O)N[C@@H](Cc1c[nH]c2ccccc12)C(=O)N[C@H](C(=O)N[C@@H](CCCCN)C(=O)N[C@@H](CCCNC(=N)N)C(=O)N[C@@H](CCCCN)C(=O)N[C@@H](CCCNC(=N)N)C(=O)N[C@@H](CCC(N)=O)C(=O)N[C@@H](CCC(N)=O)C(N)=O)[C@@H](C)CC)[C@@H](C)CC)[C@@H](C)O)[C@@H](C)O)C(C)C)C(C)C` [Melittin], the GM in data set [1] stood at 3.8 µM. Besides, in the data set on trypsin, the “antibacterial activity against E. coli after trypsin culture” value was “remarkable decrease in the antibacterial activity”.

The values are drawn from US12012387B2, “Triazine compound and use thereof” (priority 2018, dated 2024).
